The results in this text go back to US12729192B2, “CDK9 inhibitor and use thereof” (PHARMABLOCK SCIENCES (NANJING), INC., priority 2020, dated 2026).

Format in all cases: biochemical
The target in one assay is T1, CDK7 (Homo sapiens, UniProt P50613).
T1 construct: purchased Carna Biosciences, Inc
As to the kind of experiment: CDK7 kinase activity inhibition (ADP-Glo). To be noted: 10 μM ATP, 2 h at room temperature. Here is the method:
(§1) CDK9 kinase was manufactured by the company or commercially available. CDK1, CDK2 and CDK7 were purchased from Carna Biosciences, Inc. ADP-Glo™ kit was purchased from Promega Corporation. Dithiothreitol (DTT), Tween-20, dimethylsulfoxide (DMSO), bovine serum albumin (BSA) and Tris base were obtained from Sigma at the available highest level of purity.
(§2) General procedures for CDK inhibition determination: The determination was performed in a buffer consisting of 50 μM DTT, 0.1% BSA, 40 mM Tris-HCl pH=7.5 and 20 mM MgCl2. The compound dissolved in DMSO and CDK enzymes were diluted with the buffer. 1 μL of the compound solution in 5% DMSO and 2 μL of the CDK enzyme solution were added to a white low-volume 384-well microtiter plate and incubated for 20 min at room temperature. Ultra pure ATP and the substrate polypeptide (purchased from GenScript Biotech Corporation) were diluted together into the buffer and added to a mixed solution of the compound and the enzyme, 2 μL per well. They were incubated for 2 h at room temperature.
(§3) After the reaction was completed, 5 μL of ADP-Glo™ reagent was added to each well and incubated for 40 min at room temperature, and then 10 μL of test reagent was added to each well and incubated for 30 mi at room temperature. Chemical luminescence values were measured by using a Tecan (Männedorf, Switzerland) multifunctional plate reader Spark for plate reading. The IC50 value of the inhibitor was obtained by fitting the chemical luminescence intensity ratio in the S-shaped dosage reaction curve using Prism 7 (La Jolla, 15 CA) relative to the concentration of the inhibitor.

In a further assay the target is CDK9 (Homo sapiens, UniProt P50750). As to the kind of experiment: CDK9 kinase activity inhibition (ADP-Glo). As to conditions: 10 μM ATP, 2 h at room temperature. Here is the method: as §1, §2, §3
The target in the next assay is T2, CDK2 (Homo sapiens, UniProt P24941).
T2 construct: purchased Carna Biosciences, Inc
As to the kind of experiment: CDK2 kinase activity inhibition (ADP-Glo). As to conditions: 10 μM ATP, 2 h at room temperature. Here is the method: as §1, §2, §3

In the next assay the target is T3, CDK1 (Homo sapiens, UniProt P06493).
T3 construct: purchased Carna Biosciences, Inc
In words: CDK1 kinase activity inhibition (ADP-Glo). To be noted: 50 μM ATP, 2 h at room temperature. As for the experimental part:
as §1, §2, §3

T1 sequence (P50613 whole entry): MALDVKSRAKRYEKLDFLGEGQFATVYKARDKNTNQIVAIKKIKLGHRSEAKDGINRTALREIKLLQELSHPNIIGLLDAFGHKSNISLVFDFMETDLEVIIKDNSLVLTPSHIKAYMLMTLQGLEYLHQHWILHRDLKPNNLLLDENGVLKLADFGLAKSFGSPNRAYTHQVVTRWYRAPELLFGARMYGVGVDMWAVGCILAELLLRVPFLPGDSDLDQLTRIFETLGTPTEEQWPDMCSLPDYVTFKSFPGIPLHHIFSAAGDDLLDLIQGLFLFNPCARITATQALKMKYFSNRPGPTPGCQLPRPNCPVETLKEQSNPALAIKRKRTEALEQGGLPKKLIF
T1 sequence (P51946 whole entry partner): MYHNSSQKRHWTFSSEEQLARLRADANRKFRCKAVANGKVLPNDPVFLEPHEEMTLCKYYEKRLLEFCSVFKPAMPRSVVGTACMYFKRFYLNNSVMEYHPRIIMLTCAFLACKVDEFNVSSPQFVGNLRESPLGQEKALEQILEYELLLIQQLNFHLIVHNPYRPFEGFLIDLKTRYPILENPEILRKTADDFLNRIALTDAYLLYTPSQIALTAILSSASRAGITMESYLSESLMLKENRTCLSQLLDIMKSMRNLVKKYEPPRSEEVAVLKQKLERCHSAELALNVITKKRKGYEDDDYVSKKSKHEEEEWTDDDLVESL
T1 sequence (P51948 whole entry partner): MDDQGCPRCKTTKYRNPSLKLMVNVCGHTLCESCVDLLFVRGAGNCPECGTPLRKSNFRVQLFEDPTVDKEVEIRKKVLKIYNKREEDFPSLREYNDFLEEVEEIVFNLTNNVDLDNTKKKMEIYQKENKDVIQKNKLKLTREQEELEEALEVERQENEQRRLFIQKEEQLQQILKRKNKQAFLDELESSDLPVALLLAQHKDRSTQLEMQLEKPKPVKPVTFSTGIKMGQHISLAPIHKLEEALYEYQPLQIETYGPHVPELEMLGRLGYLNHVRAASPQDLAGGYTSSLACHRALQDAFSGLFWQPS
CDK9, sequence (P50750 whole entry): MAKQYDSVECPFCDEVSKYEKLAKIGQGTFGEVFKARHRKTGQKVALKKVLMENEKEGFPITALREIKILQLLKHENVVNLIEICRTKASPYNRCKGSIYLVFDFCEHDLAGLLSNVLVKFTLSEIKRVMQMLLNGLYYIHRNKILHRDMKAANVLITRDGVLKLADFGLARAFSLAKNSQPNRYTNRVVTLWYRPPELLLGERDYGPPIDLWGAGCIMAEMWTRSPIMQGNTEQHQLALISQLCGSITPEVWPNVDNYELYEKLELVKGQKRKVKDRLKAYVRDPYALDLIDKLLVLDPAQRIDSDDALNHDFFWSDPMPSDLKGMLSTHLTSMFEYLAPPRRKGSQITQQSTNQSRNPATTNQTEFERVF
CDK9, sequence (O60563 whole entry partner): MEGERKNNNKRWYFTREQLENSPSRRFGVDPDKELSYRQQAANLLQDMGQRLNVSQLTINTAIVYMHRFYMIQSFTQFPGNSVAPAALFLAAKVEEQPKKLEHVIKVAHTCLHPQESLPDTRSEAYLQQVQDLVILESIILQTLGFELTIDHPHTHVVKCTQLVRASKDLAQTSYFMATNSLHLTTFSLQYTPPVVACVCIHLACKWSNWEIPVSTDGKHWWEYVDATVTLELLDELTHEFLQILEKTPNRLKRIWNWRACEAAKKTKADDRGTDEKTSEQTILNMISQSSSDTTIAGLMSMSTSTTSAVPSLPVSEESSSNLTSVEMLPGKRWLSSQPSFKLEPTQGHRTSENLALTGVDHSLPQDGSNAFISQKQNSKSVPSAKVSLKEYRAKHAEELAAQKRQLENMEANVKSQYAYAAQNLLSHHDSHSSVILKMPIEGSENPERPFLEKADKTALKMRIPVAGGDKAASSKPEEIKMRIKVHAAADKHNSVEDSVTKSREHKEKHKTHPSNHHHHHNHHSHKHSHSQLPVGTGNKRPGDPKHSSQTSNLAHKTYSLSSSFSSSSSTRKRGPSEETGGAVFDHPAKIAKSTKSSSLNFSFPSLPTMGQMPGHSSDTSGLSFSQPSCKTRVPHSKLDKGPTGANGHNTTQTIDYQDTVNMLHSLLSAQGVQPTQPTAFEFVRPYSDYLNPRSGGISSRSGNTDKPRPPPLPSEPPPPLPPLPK
T3 sequence (P06493 whole entry): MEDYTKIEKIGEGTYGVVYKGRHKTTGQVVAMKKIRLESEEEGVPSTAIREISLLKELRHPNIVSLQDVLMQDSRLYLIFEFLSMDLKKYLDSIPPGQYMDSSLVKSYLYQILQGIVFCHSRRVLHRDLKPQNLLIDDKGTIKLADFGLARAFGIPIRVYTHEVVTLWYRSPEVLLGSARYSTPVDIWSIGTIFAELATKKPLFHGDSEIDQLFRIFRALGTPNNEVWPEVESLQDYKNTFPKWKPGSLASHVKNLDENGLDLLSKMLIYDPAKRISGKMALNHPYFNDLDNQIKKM
T3 sequence (P14635 whole entry partner): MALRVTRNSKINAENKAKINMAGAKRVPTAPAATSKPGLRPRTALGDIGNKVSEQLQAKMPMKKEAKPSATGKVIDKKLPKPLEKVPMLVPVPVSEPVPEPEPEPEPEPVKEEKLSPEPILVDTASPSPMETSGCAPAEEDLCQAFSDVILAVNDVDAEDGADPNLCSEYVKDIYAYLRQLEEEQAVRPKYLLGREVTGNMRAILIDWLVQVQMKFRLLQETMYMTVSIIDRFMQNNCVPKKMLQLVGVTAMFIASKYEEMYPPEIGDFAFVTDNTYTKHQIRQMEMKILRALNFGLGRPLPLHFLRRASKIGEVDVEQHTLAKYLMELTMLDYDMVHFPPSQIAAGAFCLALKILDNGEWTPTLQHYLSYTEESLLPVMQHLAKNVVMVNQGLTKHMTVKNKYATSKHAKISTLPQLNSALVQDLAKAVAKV

Turning to `CC(=O)NC[C@H]1CCC(F)(F)CN1C(=O)c1nc(Nc2cc(C)ccn2)ccc1C` [Compound 8, (R)—N-((5,5-difluoro-1-(3-methyl-6-((4-methylpyridin-2-yl)amino)pyridine-2-carbonyl)piperidin-2-yl)methyl)acetamide], the half-inhibitory concentration (IC50) came out at 8380 nM at CDK7, 8.9 nM on CDK9, 2590 nM against CDK2 and 8730 nM against CDK1.

In the case of `COc1ccnc(Nc2ccc(C)c(C(=O)N3CC(F)(F)CC[C@@H]3CNC(C)=O)n2)c1` [Compound 9, (R)—N-((5,5-difluoro-1-(6-((4-methoxypyridin-2-yl)amino)-3-methylpyridine-2-carbonyl)piperidin-2-yl)methyl)acetamide], the IC50 at CDK7 was above 10000 nM; on CDK9, 7.8 nM; at CDK2, 8450 nM; on CDK1, above 10000 nM.

Regarding `COc1cc(Nc2ccc(C)c(C(=O)N3CC(F)(F)CC[C@@H]3CNC(C)=O)n2)ncc1Cl` [Compound 10, (R)—N-((1-(6-((5-chloro-4-methoxypyridin-2-yl)amino)-3-methylpyridine-2-carbonyl)-5,5-difluoropiperidin-2-yl)methyl)acetamide], the half-maximal inhibitory concentration (IC50) against CDK7 is 9860 nM; against CDK9, 361 nM; on CDK2, above 10000 nM; at CDK1, above 10000 nM.

For `CC(=O)NC[C@H]1CCC(F)(F)CN1C(=O)c1nc(Nc2cc(-c3cnn4c3CCC4)c(F)cn2)ccc1C` [Compound 14, (R)—N-((1-(6-((4-(5,6-dihydro-4H-pyrrolo[1,2-b]pyrazol-3-yl)-5-fluoropyridin-2-yl)amino)-3-methylpyridine-2-carbonyl)-5,5-difluoropiperidin-2-yl)methyl)acetamide], the results for the IC50 at CDK7, against CDK9 and on CDK2 were 1880 nM, 107 nM and 1600 nM, respectively.

Turning to `CC(=O)NC[C@H]1CCC(F)(F)CN1C(=O)c1nc(Nc2cc(C3CC(F)(F)C3)[nH]n2)ccc1C` [Compound 15, (R)—N-((1-(6-((5-(3,3-difluorocyclobutyl)-1H-pyrazol-3-yl)amino)-3-methylpyridine-2-carbonyl)-5,5-difluoropiperidin-2-yl)methyl)acetamide], the IC50 against CDK7 is above 10000 nM; against CDK9 it was 4.3 nM; against CDK2, 12 nM; at CDK1, 503 nM.

`CC(=O)NC[C@H]1CCC(F)(F)CN1C(=O)c1nc(Nc2cc(OC3CCC3)ccn2)ccc1C` [Compound 16, (R)—N-((1-(6-((4-cyclobutoxypyridin-2-yl)amino)-3-methylpyridine-2-carbonyl)-5,5-difluoropiperidin-2-yl)methyl)acetamide]: the IC50 is above 10000 nM against CDK7, 54.6 nM on CDK9 and 6350 nM at CDK2.

As to `CC(=O)NC[C@H]1CCC(F)(F)CN1C(=O)c1nc(Nc2cc(C(C)(C)C)ccn2)ccc1C` [Compound 17, (R)—N-((1-(6-((4-(t-butyl)pyridin-2-yl)amino)-3-methylpyridine-2-carbonyl)-5,5-difluoropiperidin-2-yl)methyl)acetamide], the IC50 against CDK9 was 19.2 nM; against CDK2, 2870 nM; on CDK1, above 10000 nM.

With `CC(=O)NC[C@H]1CCC(F)(F)CN1C(=O)c1nc(Nc2ccccn2)ccc1C` [Compound 22, (R)—N-((5,5-difluoro-1-(3-methyl-6-(pyridin-2-ylamino)pyridine-2-carbonyl)piperidin-2-yl)methyl)acetamide], the half-maximal inhibitory concentration (IC50) is 35 nM on CDK9, above 10000 nM at CDK2 and above 10000 nM at CDK1.

Consider `Cc1ccc(Nc2cc(C#N)ccn2)nc1C(=O)N1CC(F)(F)CC[C@@H]1CNC(=O)OC(C)(C)C` [Compound 31, (R)-((1-(6-((4-cyanopyridin-2-yl)amino)-3-methylpyridine-2-carbonyl)-5,5-difluoropiperidin-2-yl)methyl)t-butyl carbamate], for which the IC50 was 7030 nM against CDK7, 3.7 nM against CDK9, 180 nM against CDK2 and 1470 nM at CDK1.

On to `Cc1ccc(Nc2cc(OC(F)(F)F)ccn2)nc1C(=O)N1CC(F)(F)CC[C@@H]1CNS(C)(=O)=O` [Compound 32, (R)—N-((5,5-difluoro-1-(3-methyl-6-((4-(trifluoromethoxy)pyridin-2-yl)amino)pyridine-2-carbonyl)piperidin-2-yl)methyl)methanesulfonamide], for which the 50% inhibitory concentration (IC50) is 780 nM against CDK7, 11.6 nM against CDK9, 305 nM against CDK2 and 1390 nM against CDK1.

In the case of `Cc1ccc(Nc2cc(OC(F)(F)F)ccn2)nc1C(=O)N1CC(F)(F)CC[C@@H]1CNC(=O)OC(C)(C)C` [Compound 33, (R)-((5,5-difluoro-1-(3-methyl-6-((4-(trifluoromethoxy)pyridin-2-yl)amino)pyridine-2-carbonyl)piperidin-2-yl)methyl)t-butyl carbamate], the IC50 against CDK7 is above 10000 nM; against CDK9, 38 nM; against CDK2, 1420 nM.

Turning to `CCOc1ccnc(Nc2ccc(C)c(C(=O)N3CC(F)(F)CC[C@@H]3CNC(C)=O)n2)c1` [Compound 35, (R)—N-((1-(6-((4-ethoxypyridin-2-yl)amino)-3-methylpyridine-2-carbonyl)-5,5-difluoropiperidin-2-yl)methyl)acetamide], the IC50 is above 10000 nM at CDK7, 5 nM at CDK9, 6840 nM at CDK2 and above 10000 nM at CDK1.

Take `CCOc1ccnc(Nc2ccc(C)c(C(=O)N3CC(F)(F)CC[C@@H]3CNC(=O)OC(C)(C)C)n2)c1` [Compound 36, (R)-((1-(6-((4-ethoxypyridin-2-yl)amino)-3-methylpyridine-2-carbonyl)-5,5-difluoropiperidin-2-yl)methyl)t-butyl carbamate]: the IC50 at CDK7 is above 10000 nM; at CDK9 it was 231 nM; against CDK2, above 10000 nM.

Regarding `Cc1ccc(Nc2cc(OC(F)(F)F)ccn2)nc1C(=O)N1CCCC[C@@H]1CNC(=O)OC(C)(C)C` [Compound 41, (R)-((1-(3-methyl-6-((4-(trifluoromethoxy)pyridin-2-yl)amino)pyridine-2-carbonyl)piperidin-2-yl)methyl)t-butyl carbamate], the IC50 on CDK7 is above 10000 nM; at CDK9, 245 nM; against CDK2 it was 9260 nM.

As to `Cc1ccc(Nc2cc(OC(F)(F)F)ccn2)nc1C(=O)N1CCCN2CCCC2C1` (stereo not shown) [Compound 46, (Hexahydro-1H-pyrrolo[1,2-a][1,4]diazepin-2-2(3H)-yl)(3-methyl-6-((4-(trifluoromethoxy)pyridin-2-yl)amino)pyridin-2-yl)methanone], the figures for the IC50 against CDK9, at CDK2 and against CDK1 were 86.9 nM, 770 nM and 4120 nM, respectively.

For `CCOc1ccnc(Nc2ccc(C)c(C(=O)N3CC(F)(F)CC[C@@H]3CNC(=O)OC)n2)c1` [Compound 53, (R)-((1-(6-((4-ethoxypyridin-2-yl)amino)-3-methylpyridine-2-carbonyl)-5,5-difluoropiperidin-2-yl)methyl)methyl carbamate], the IC50 on CDK9 was 19.7 nM; on CDK2, above 10000 nM; against CDK1, above 10000 nM.

In the case of `CC(=O)NC[C@H]1CCC(F)(F)CN1C(=O)c1cc(Nc2cc(OC(F)(F)F)ccn2)ccc1C` [Compound 68, (R)—N-((5,5-difluoro-1-(2-methyl-5-((4-(trifluoromethoxy)pyridin-2-yl)amino)benzoyl)piperidin-2-yl)methyl)acetamide], the IC50 against CDK9 is 265 nM; against CDK2, above 10000 nM; at CDK1 it was above 10000 nM.
